Measurements published in patent publication US20040180959A1, “Gabapentin analogues for fibromy algia and concomitant disorders” (priority 2002, published 2004).

Key:
Format in all cases: in vivo
CD-1 mice = experiment: Tail Suspension Test (TST) in mice; settings: 2 hours after treatment
Experimental: The anxiolytic and antidepressant activity of (3S, 4S)-(1-Aminomethyl-3,4-dimethyl-cyclopentyl)-acetic acid (“Compound A”) was assessed using the Tail Suspension Test (TST) in mice, and in the Water-lick (Vogel) Conflict Test (WLC) in rats. The Vogel test is a recognized test procedure for assessing the potential anxiolytic utility. The TST procedure is a behavior despair paradigm used to assess potential antidepressant activity.
The method consisted of suspending mice by a piece of cellophane tape attached to the distal end of the tail for 6 minutes. Animals (CD-1 mice, weighing 22 to 27 g, from Charles River Labs) were tested. The test apparatus was the TST-2™ (ITEM-Labo, Le Kremmlin-Bicetre Cedex, France). Data were analyzed with analysis of variance (ANOVA) and Tukey's Multiple Range Test or Student's t-test.
(§1) Compound A was dissolved in water and tested orally as a solution from 0.3 to 100 mg/kg in rats and 3 to 300 mg/kg in mice. Dosages are expressed as the active moiety and were administered in a volume of 1 mL/kg for rats and 10 mL/kg for mice.
The profile of typical […] activity in the TST consists of […]. Compound A and pregabalin were tested concurrently (PO) 2 hours after treatment. Compound A was administered at doses ranging from 3 to 100 mg/kg and pregabalin was tested from 3-300 mg/kg and served as positive control (Table 1). Compound A dose dependently increases immobility with the MED observed at the 3 mg/kg dosage and maximal effects were seen following the 30 mg/kg dose.

Wistar rats = experiment: Water-lick (Vogel) Conflict Test in rats; settings: for Percent of Animals Tested With >20 Shock Episodes / Mean Shock Episodes (1 mA): pretreatment 120 minutes; for Mean Shock Episodes (1 mA): Mean ± SEM
Experimental: In each experiment, naive adult male Wistar rats between 170 to 200 g were randomly divided into groups (N=10-30/group) and deprived of water for 48 hours prior to testing. Food was available on Day 1 and removed 24 hours prior to test Day 2.
Apparatus: The modular operant test cage (Coulbourn Instruments) measures 10.25×12×12 in. The test chambers feature 3 modular bays on each side of the cage for a total of 6 bays. A module optical lickometer is mounted on one side of the chamber 5 cm above the grid floor. The lickometer is used to measure licking-drinking from a water bottle mounted outside the test chamber. A photo beam is piped via glass rods to the tip of the drink tube across a gap at the end of the tube. The animals tongue breaks the beam on each lick. The front and back of the test chamber is made of clear Plexiglas. The front door is covered to reduce distractions from inside the test room. The back of the test chamber is facing a wall, away from the flow of traffic within the testing room and remains uncovered to provide the opportunity for observations during testing. Shocks are delivered using a (Coulbourn) programmable universal shocker calibrated to deliver a 1 mA shock for 1 second through the drink tube.
Procedure: On Day 1, after a 24-hour water deprivation, experimental subjects were placed into the test chambers and allowed to drink unpunished. Drinking was limited to 500 responses or approximately 5 mL of water during a 10 minute session. Immediately following the unpunished drinking session, rats were returned to their home cages, deprived of water for an additional 24 hours and was food deprived. […] After the pretreatment period rats were placed into a test chamber and allowed to drink for 10 minutes. After every 10 licks, rats received a 1-second shock (1 mA) through the drink tube. Thus, a conflict or anxiety-producing situation exists. Rats are motivated to drink; however, they are inhibited by the shock. Anxiety is reflected by the low amounts of drinking. Standard anxiolytic drugs produce effects that allow rats to overcome this behavioral inhibition and drink despite the shock.
All data were analyzed using a Kruskal-Wallis one Way Analysis of Variance on Ranks and Mann-Whitney Rank Sum Tests.
Quantitative Analysis: A quantitative analysis represents the percentage of subjects within a treatment group that receives >20 shock episodes during a test session. This number provides a quantitative comparison regarding the distribution of the responses.
as §1

mice = experiment: Inverted Screen Test to assess coordination; settings: immediately following the TST
Experimental: Immediately following the TST, mice were also tested in the Inverted Screen Test to assess coordination. Animals were given a 1-minute trial in which they had to climb to the top of the inverted screen or to simply hang on and not fall off.

[1] = dose 3× the Vogel MED (30 mg/kg)

CC(C)C[C@H](CN)CC(=O)O [Pregabalin, pregabalin, reference compound]
Immobility, % Percent of control (CD-1 mice; 3 mg/kg PO): 102.9 ± 9.5%
Power of Movement, % Percent of control (CD-1 mice; 3 mg/kg PO): 99.1 ± 22.9%
Immobility, % Percent of control (CD-1 mice; 10 mg/kg PO): 134.5 ± 9.9 %
Power of Movement, % Percent of control (CD-1 mice; 10 mg/kg PO): 89.6 ± 18.7%
Immobility, % Percent of control (CD-1 mice; 30 mg/kg PO): 136.9 ± 7.1 %
Power of Movement, % Percent of control (CD-1 mice; 30 mg/kg PO): 96.4 ± 22.7%
Immobility, % Percent of control (CD-1 mice; 100 mg/kg PO): 152.7 ± 6.6 %
Power of Movement, % Percent of control (CD-1 mice; 100 mg/kg PO): 73.4 ± 12.5%
Immobility, % Percent of control (CD-1 mice; 300 mg/kg PO): 160.5 ± 7.4 %
Power of Movement, % Percent of control (CD-1 mice; 300 mg/kg PO): 76.6 ± 12.2%
Percent of Animals Tested With >20 Shock Episodes (Wistar rats; 0.3 mg/kg PO): 0%
Mean Shock Episodes (1 mA) (Wistar rats; 0.3 mg/kg PO): 5.1 ± 1.0
Percent of Animals Tested With >20 Shock Episodes (Wistar rats; 1 mg/kg PO): 20%
Mean Shock Episodes (1 mA) (Wistar rats; 1 mg/kg PO): 15.0 ± 6.3
Percent of Animals Tested With >20 Shock Episodes (Wistar rats; 3 mg/kg PO): 20%
Mean Shock Episodes (1 mA) (Wistar rats; 3 mg/kg PO): 10.2 ± 1.6
Percent of Animals Tested With >20 Shock Episodes (Wistar rats; 10 mg/kg PO): 20%
Mean Shock Episodes (1 mA) (Wistar rats; 10 mg/kg PO): 14.7 ± 4.0
Shock episodes (time-course) (Wistar rats; 10 mg/kg, 1 hr post treatment): 65.8 ± 10.8
Shock episodes (time-course) (Wistar rats; 10 mg/kg, 2 hr post treatment): 73.3 ± 13.7
Shock episodes (time-course) (Wistar rats; 10 mg/kg, 4 hr post treatment): 75.1 ± 13.7
Shock episodes (time-course) (Wistar rats; 10 mg/kg, 6 hr post treatment): 54.9 ± 14.7
Shock episodes (time-course) (Wistar rats; 10 mg/kg, 8 hr post treatment): 41.9 ± 13.5
Percent of Animals Tested With >20 Shock Episodes (Wistar rats; 30 mg/kg PO): 50%
Mean Shock Episodes (1 mA) (Wistar rats; 30 mg/kg PO): 51.0 ± 19.1
Shock episodes (time-course) (Wistar rats; 30 mg/kg, 30 min. post treatment): 27.7 ± 8.2
Shock episodes (time-course) (Wistar rats; 30 mg/kg, 1 hr post treatment): 66.5 ± 10
Shock episodes (time-course) (Wistar rats; 30 mg/kg, 2 hr post treatment): 59.8 ± 9.8
Shock episodes (time-course) (Wistar rats; 30 mg/kg, 4 hr post treatment): 100.3 ± 12
Shock episodes (time-course) (Wistar rats; 30 mg/kg, 6 hr post treatment): 39.5 ± 9
Shock episodes (time-course) (Wistar rats; 30 mg/kg, 8 hr post treatment): 30.4 ± 9.1
Percent of Animals Tested With >20 Shock Episodes (Wistar rats; 100 mg/kg PO): 50%
Mean Shock Episodes (1 mA) (Wistar rats; 100 mg/kg PO): 40.7 ± 11.1
Time of maximal effects after treatment (Wistar rats; MED dose 10 mg/kg): 2 to 4 h
Activity maintained through (Wistar rats; [1]): 8 h
Onset of activity after treatment (Wistar rats; [1]): 1 h
Time of peak activity post treatment (Wistar rats; [1]): 6 h
MED for anti-conflict activity (Wistar rats; oral, 2 hour pretreatment, rats): 10 mg/kg
Screen fall-off, animals of animals tested (mice; 100 mg/kg PO): 1 of 10
Screen fall-off, animals of animals tested (mice; 300 mg/kg PO): 1 of 10
